In brackets after ≈: the same amount, converted by molar mass.
Assays:
U2OS = experiment: MTT assay, bone (U2OS); type: cell-based, human
Experimental: (§1) Cells. HTB-9 (bladder), HeLa-S3 (cervix), DU145 (prostate), H460 (lung), MCF-7 (breast), K562 (leukemia), HCT116 (colon), HepG2 (liver), U2OS (bone), T98G (brain), SK-MEL-5 (Skin) and OVCAR 3, ES2 (ovary), Pancreas (Capan), Mouth (KB), Kidney(A498).
(§2) MTT Assay. The procedure for MTT assay followed the method described by Carmichael et al. (1987) with modifications. The cells were seeded into a 96-well plate at for 24 hours before drug-treatment. The cells were then exposed to the drugs for 48, 72, or 96 hours. After the drug-treatment, MTT (0.5 mg/mL) was added to cultures and incubated for an hour. The formazan (product of the reduction of tetrazolium by viable cells) formed and was dissolved with DMSO and the O.D. at 490 nm, and was measured by an ELISA reader. The MTT level of the cells before drug-treatment was also measured (T0). The % cell-growth (%G) is calculated as: %G = (TD-T0 / TC-T0) x 100(1), where TC or TD represents O.D. readings of control or drug-treated cells. When T0 > TD, then the cytotoxicity (LC) expressed as % of the control is calculated as: %LC = (TD-T0 / T0) × 100(2).

H460 = experiment: MTT assay, lung (H460); type: cell-based, human; settings: for IC50 of lung (H460): MTT
Experimental: as §1, §2
Methods: • A. Cells • -- H460 cells are derived from a Human Lung large cell carcinoma. Cells were grown in RPMI 1640 medium supplemented with 10% FCS, antibiotics and glutamine. 5000 cells were seeded in a well (96-welled plate) for one day before drug-treatment • B. Drug treatment: • -- Drug: Tig-S (stored as a 1000x stock solution in DMSO) was used. • -- Drug concentration used: from 0.15 - 20 ug/ml. • -- Drug-treatment was carried out for 1, 2 and 4 days. For the 4 days incubation, cells were fed with fresh medium (with drug) on day 2. • C. At the end of the drug-treatment, cytotoxic test was performed with MTT assay. Results: • 1. Tig-S inhibits H460 cells’ growth with the IC50 of drug 3 ug/ml. • 2. […] cells growth inhibition was observed beyond drug 5 ug/ml. • 3. No dead cell was found at drug concentration in 20 ug/ml.

HCT116 = experiment: MTT assay, colon (HCT116); type: cell-based, human
Experimental: as §1, §2

Capan = experiment: MTT assay, pancreas (Capan); type: cell-based, human
Experimental: as §1, §2
• A. Cells: Capan cells are derived from Human pancreas carcinoma (pancreas). Cells were grown in RPMI 1640 medium supplemented with 10% FCS, antibiotics and glutamine. 10000 cells were seeded in a well (96-welled plate) for one day before drug-treatment • B. Drug treatment: • -- Drug: Tig-S (stored as a 1000x stock solution in DMSO) was used. • -- Drug concentration used: from 0.15 - 20 ug/ml. • -- Drug-treatment was carried out for 3 days. • C. At the end of the drug-treatment, cytotoxic test was performed with MTT assay. The percentage of drug-treated cells’ growth as compared to those of the no drug control is determined.

OVCAR3 = experiment: MTT assay, ovary (OVCAR3); type: cell-based, human; settings: for IC50 of ovary (OVCAR3): MTT
Experimental: as §1, §2

DU145 = experiment: MTT assay, prostate (DU145); type: cell-based, human
Experimental: as §1, §2

SK-Mel-5 = experiment: MTT assay, skin (SK-Mel-5); type: cell-based, human
Experimental: as §1, §2

T98G = experiment: MTT assay, brain (T98G); type: cell-based, human
Experimental: as §1, §2

Hey8A cells = experiment: Inhibition of cell adhesion, Hey8A; type: cell-based; settings: 5 ug/ml, 5 hours
Experimental: Methods and Results. ES2 or Hey8A cells were plated in T25 flasks with medium containing 5 ug/ml of compounds selected from structure (2A) including E4A-Tig-R, E4A-Tig-V, E4A-Tig-S, E4A-Tig-N, E4A-Tig-Q, E4A-Tig-T. Cultures were incubated for 5 hours. Attached cells were removed from flasks by trypsinization and the numbers/amounts were counted. Compared to no drug controls, 80 ± 4% of ES2 cells and 60 ± 4% of Hey8A cells were found attached to flasks under this condition. At 5 ug/ml of above compounds, over 90% of unattached cells are alive as determined by the trypan Blue exclusion assay and by their ability to re-attach to flasks when plating in medium without tested compounds. However, with 10 ug/ml tested compounds, less than 40% of cells attached to flasks and many of them are dead cells.

24,28-O-Tigloyl-3β,16α, 21β, 22a, 24β, 28-hexahydroxyolean-12-ene [Tig-R]
IC50 of bone (U2OS) (U2OS): 4.5 µg/mL | IC50 of lung (H460) (H460): 4.8 µg/mL | IC50 of colon (HCT116) (HCT116): 5.2 µg/mL | IC50 of pancreas (Capan) (Capan): 2.4 µg/mL | IC50 of ovary (OVCAR3) (OVCAR3): 5.8 µg/mL | IC50 of prostate (DU145) (DU145): 3.6 µg/mL | IC50 of skin (SK-Mel-5) (SK-Mel-5): 5.1 µg/mL | IC50 of brain (T98G) (T98G): 8 µg/mL | Hey8A cells attached to flasks compared to no drug controls (Hey8A cells): 60 ± 4%

CC=C(C)C(=O)OCC1(C)C(O)CCC2(C)C1CCC1(C)C2CC=C2C3CC(C)(C)C(O)C(O)C3(CO)C(O)CC21C (stereo not drawn) [Tig-N]
IC50 of bone (U2OS) (U2OS): 15 µg/mL | IC50 of lung (H460) (H460): 13 µg/mL | IC50 of colon (HCT116) (HCT116): 15 µg/mL | IC50 of pancreas (Capan) (Capan): 8 µg/mL | IC50 of ovary (OVCAR3) (OVCAR3): 18 µg/mL | IC50 of prostate (DU145) (DU145): 4.8 µg/mL | IC50 of skin (SK-Mel-5) (SK-Mel-5): 15 µg/mL | IC50 of brain (T98G) (T98G): 19 µg/mL | Hey8A cells attached to flasks compared to no drug controls (Hey8A cells): 60 ± 4%

CC=C(C)C(=O)OCC1(C)C(O)CCC2(C)C1CCC1(C)C2CC=C2C3CC(C)(C)C(OC(=O)C(C)=CC)C(O)C3(CO)C(O)CC21C (stereo not drawn) [Tig-S]
IC50 of bone (U2OS) (U2OS): 5.2 µg/mL | IC50, lung H460 cells growth (H460; 4 days): 3 µg/mL (≈ 4.47 µM) | IC50, H460 cells' growth (H460; Experiment 32, treatment 1, 2 and 4 days): 3 µg/mL (≈ 4.47 µM) | IC50 of lung (H460) (H460): 5.6 µg/mL | dead cells, H460 (H460; at 20 ug/ml): No dead cell | IC50, lung H460 cells growth (H460; one day): 3.4 µg/mL (≈ 5.07 µM) | IC50 of colon (HCT116) (HCT116): 6.6 µg/mL | IC50 of pancreas (Capan) (Capan): 2.9 µg/mL | IC50, pancreas cancer (Capan) cells' growth (Capan; 3 days): about 1 ug/ml | IC50, ovarian cancer (OCAR3) cells' growth (OVCAR3; FIG. 37): 2.5 µg/mL (≈ 3.73 µM) | IC50 of ovary (OVCAR3) (OVCAR3): 6.5 µg/mL | IC50 of prostate (DU145) (DU145): 4.3 µg/mL | IC50 of skin (SK-Mel-5) (SK-Mel-5): 5.8 µg/mL | IC50 of brain (T98G) (T98G): 9 µg/mL | Hey8A cells attached to flasks compared to no drug controls (Hey8A cells): 60 ± 4%

CC=C(C)C(=O)OCC1(C)C(O)CCC2(C)C1CCC1(C)C2CC=C2C3CC(C)(C)C(O)C(OC(=O)C(C)=CC)C3(COC(=O)C(C)=CC)C(O)CC21C (stereo not drawn) [Tig-T]
IC50 of bone (U2OS) (U2OS): 20 µg/mL | IC50 of lung (H460) (H460): 21 µg/mL | IC50 of colon (HCT116) (HCT116): 23 µg/mL | IC50 of pancreas (Capan) (Capan): 10 µg/mL | IC50 of ovary (OVCAR3) (OVCAR3): 25 µg/mL | IC50 of prostate (DU145) (DU145): 16 µg/mL | IC50 of skin (SK-Mel-5) (SK-Mel-5): 22 µg/mL | IC50 of brain (T98G) (T98G): 26 µg/mL | Hey8A cells attached to flasks compared to no drug controls (Hey8A cells): 60 ± 4%

— patent US20230340012A1, “NATURAL AND SYNTHETIC COMPOUNDS FOR TREATING CANCER AND OTHER DISEASES” (PACIFIC ARROW LIMITED, priority 2009, published 2023)
